Experimental data reported in patent publication US20220370467A1, “USING OF A PPAR-DELTA AGONIST IN THE TREATMENT OF KIDNEY DISEASE” (Reneo Pharmaceuticals, Inc., priority 2019, published 2022).

What was measured:
FXR = target: T1, FXR (Homo sapiens, UniProt Q96RI1); assay: activity on nuclear receptor FXR
T1 sequence (Q96RI1 1-486): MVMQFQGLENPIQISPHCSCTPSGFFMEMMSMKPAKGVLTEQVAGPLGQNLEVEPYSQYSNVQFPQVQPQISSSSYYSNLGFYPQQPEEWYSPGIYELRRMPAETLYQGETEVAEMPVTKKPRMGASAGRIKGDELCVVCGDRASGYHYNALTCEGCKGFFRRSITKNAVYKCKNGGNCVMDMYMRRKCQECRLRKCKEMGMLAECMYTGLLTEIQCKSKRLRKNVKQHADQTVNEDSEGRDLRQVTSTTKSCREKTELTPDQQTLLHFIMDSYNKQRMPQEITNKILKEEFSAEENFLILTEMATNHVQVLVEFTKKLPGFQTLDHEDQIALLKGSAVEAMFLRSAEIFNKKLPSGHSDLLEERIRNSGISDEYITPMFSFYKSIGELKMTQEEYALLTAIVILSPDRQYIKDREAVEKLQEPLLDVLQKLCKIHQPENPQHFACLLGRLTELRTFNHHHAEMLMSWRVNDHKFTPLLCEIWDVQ

[1] = test system: inbred 129S1 Col4a3−/− mice; assay: Mouse Alport model of kidney fibrosis, Study 2; assay type: in vivo
Excerpt: Mice with mutations in one of the collagen IV genes of glomerular basement membrane collagen, Collagen IV-α3/α4/α5, have defects in glomerular function with development of kidney fibrosis. These mice develop renal dysfunction and die prematurely of renal failure with specific timing dependent on the strain background upon which the mutation is present.
Generation of Col4a3^−/−mice was as described in Miner, J. H., and Sanes, J. R. (1996), J. Cell Biol. 135:1403-1413. Studies of Compound 1 efficacy in Alport models of kidney fibrosis were performed using mice on two different strain backgrounds. Study 1 used B 6129S1 F1 hybrid Alport mice that usually reach end stage renal disease (ESRD) at about 17 to 19 weeks. These were generated by crosses between C57BL6/J (B 6) and 129S1/Sv1mJ (129S1) Alport mice. Study 2 used inbred 129S1 Col4a3^−/− mice, which usually reach ESRD at about 11 to 13 weeks. […]
Urine and blood samples were collected at the time points of 12, 15, and 17-weeks of age for B6129S1 hybrid Col4a3^+/−, −/− mice and at 8 and 10-weeks of age for inbred 129S1 Col4a3^−/− mice. Urinary protein concentration was determined by Bradford assay (Cat. 5000006, Bio-Rad) and comparison with bovine serum albumin standards. Urinary creatinine was measured by QuantiChrom™ Creatinine Assay Kit (Cat.DICT-500, BioAssay systems) and used to normalize the amount of urine. Blood urea nitrogen (BUN) levels were measured by QuantiChrom™ Urea Assay Kit (Cat.DUR2-100, BioAssay systems). Urine and blood samples were stored at −20° C. and −80° C. respectively after collection and subsequently analyzed.
For biochemistry, kidneys were collected from 15 and 17-week old B 6129S1 hybridCol4a3^+/−, −/− mice; and from 8 and 10-week old inbred 129S1 Col4a3^−/− mice. […] Protein concentration was measured by BCA assays (Cat. 23227, ThermoFisher). […]
All data are presented as mean±SEM. Statistical significance was determined by Oneway ANOVA with Dunnett's multiple comparison for more than three group comparison and Student's t test for two group comparison. […]

2K1C rat clipped kidney = details: cited from earlier work
[2] = 3 or 10 mg/kg i.p. once a day, samples at 8 and 10-weeks of age, data not shown

In the case of `Cc1cc(OC/C=C(/c2ccc(F)cc2)c2ccc(C#CCN3CCOCC3)cc2)ccc1OCC(=O)O` [Compound 1, (E)-[4-[3-(4-Fluorophenyl)-3-[4-[3-(morpholin-4-yl)propynyl]phenyl]allyloxy]-2-methyl-phenoxy]acetic acid], the “activity on FXR” value (FXR) is reported as “did not show any”, the kidney dysfunction ([1]; 3 or 10 mg/kg i.p. once a day from 4 to 10-weeks of age) is reported as “did not attenuate” and the BUN [1, 2] is reported as “did not result in any significant reduction”. The proteinuria [1, 2] was “did not result in any significant reduction”, the “levels of MCAD, COXIV, TFAM and Parkin proteins and AMPK activation” value (2K1C rat clipped kidney; 2K1C rat kidneys) was “remained at the physiological levels” and the “mitochondrial biogenesis and autophagy (PGC1-a, LC3-II, ATG5)” value (2K1C rat clipped kidney; 2K1C rat kidneys) was “inhibited similarly in both treated and untreated”. For the same compound, the “BNIP3 protein in the mitochondrial fraction” value (2K1C rat clipped kidney; 2K1C rat, compared to untreated animals) was “decreased notably”, the “nuclear amounts of oxidative stress-responsive proteins NRF1 and NRF2” value (2K1C rat clipped kidney; 2K1C rat, treated kidneys) was “below physiological levels” and the “histochemical features of necrosis in clipped kidney” value (2K1C rat clipped kidney; 2K1C rat, treated vs untreated clipped kidneys) was “did not exhibit any histochemical features of necrosis”. The “fibrotic lesions in clipped kidney” value (2K1C rat clipped kidney; 2K1C rat) was “present only in perivascular areas” and the “oxidative stress in kidneys” value (2K1C rat clipped kidney; 2K1C rat) was “attenuated”.
